Experiment: wn = mass fraction of the nth substance listed
Details: Liquid; for mass density: Vibrating tube method

OCCN(CCO)CCO [triethanolamine] + O
viscosity [mPa·s]
Details | w1 = 0.0992 | w1 = 0.1 | w1 = 0.2 | w1 = 0.2991 | w1 = 0.3 | w1 = 0.4
293.15 K, 100 kPa, Concentric cylinders viscometry | – | 1.41 | 2.066 | – | 3.197 | 5.34
293.15 K, 100 kPa, Falling or rolling sphere viscometry | 1.429 | – | 2.037 | 3.208 | – | 5.317
293.15 K, 5000 kPa, Falling or rolling sphere viscometry | 1.459 | – | 2.036 | 3.212 | – | 5.311
293.15 K, 10000 kPa, Falling or rolling sphere viscometry | 1.455 | – | 2.035 | 3.229 | – | 5.331
293.15 K, 15000 kPa, Falling or rolling sphere viscometry | 1.454 | – | 2.04 | 3.18 | – | 5.376
293.15 K, 20000 kPa, Falling or rolling sphere viscometry | 1.45 | – | 2.042 | 3.234 | – | 5.417
293.15 K, 25000 kPa, Falling or rolling sphere viscometry | 1.447 | – | 2.044 | 3.242 | – | 5.445
293.15 K, 30000 kPa, Falling or rolling sphere viscometry | 1.446 | – | 2.046 | 3.245 | – | 5.5
293.15 K, 40000 kPa, Falling or rolling sphere viscometry | 1.443 | – | 2.051 | 3.288 | – | 5.549
293.15 K, 60000 kPa, Falling or rolling sphere viscometry | 1.44 | – | 2.064 | 3.325 | – | 5.675
293.15 K, 80000 kPa, Falling or rolling sphere viscometry | 1.447 | – | 2.08 | 3.373 | – | 5.792
293.15 K, 100000 kPa, Falling or rolling sphere viscometry | 1.448 | – | 2.098 | 3.446 | – | 5.987
313.15 K, 100 kPa, Concentric cylinders viscometry | – | 0.881 | 1.244 | – | 1.786 | 2.756
313.15 K, 100 kPa, Falling or rolling sphere viscometry | 0.909 | – | 1.203 | 1.786 | – | 2.788
313.15 K, 5000 kPa, Falling or rolling sphere viscometry | 0.8937 | – | 1.208 | 1.797 | – | 2.794
313.15 K, 10000 kPa, Falling or rolling sphere viscometry | 0.8956 | – | 1.21 | 1.808 | – | 2.797
313.15 K, 15000 kPa, Falling or rolling sphere viscometry | 0.8964 | – | 1.214 | 1.818 | – | 2.828
313.15 K, 20000 kPa, Falling or rolling sphere viscometry | 0.8965 | – | 1.22 | 1.832 | – | 2.852
313.15 K, 25000 kPa, Falling or rolling sphere viscometry | 0.8977 | – | 1.225 | 1.835 | – | 2.866
313.15 K, 30000 kPa, Falling or rolling sphere viscometry | 0.8992 | – | 1.228 | 1.846 | – | 2.889
313.15 K, 40000 kPa, Falling or rolling sphere viscometry | 0.9027 | – | 1.231 | 1.861 | – | 2.928
313.15 K, 60000 kPa, Falling or rolling sphere viscometry | 0.91 | – | 1.251 | 1.893 | – | 3.028
313.15 K, 80000 kPa, Falling or rolling sphere viscometry | 0.9177 | – | 1.276 | 1.933 | – | 3.115
313.15 K, 100000 kPa, Falling or rolling sphere viscometry | 0.9261 | – | 1.282 | 1.98 | – | 3.193
333.15 K, 100 kPa, Concentric cylinders viscometry | – | 0.621 | 0.821 | – | 1.173 | 1.669
333.15 K, 100 kPa, Falling or rolling sphere viscometry | 0.6124 | – | 0.8083 | 1.147 | – | 1.67
333.15 K, 5000 kPa, Falling or rolling sphere viscometry | 0.6114 | – | 0.8084 | 1.154 | – | 1.68
333.15 K, 10000 kPa, Falling or rolling sphere viscometry | 0.6149 | – | 0.8125 | 1.164 | – | 1.698
333.15 K, 15000 kPa, Falling or rolling sphere viscometry | 0.6154 | – | 0.8177 | 1.168 | – | 1.704
333.15 K, 20000 kPa, Falling or rolling sphere viscometry | 0.6178 | – | 0.82 | 1.178 | – | 1.72
333.15 K, 25000 kPa, Falling or rolling sphere viscometry | 0.6198 | – | 0.8238 | 1.181 | – | 1.738
333.15 K, 30000 kPa, Falling or rolling sphere viscometry | 0.6221 | – | 0.8283 | 1.189 | – | 1.748
333.15 K, 40000 kPa, Falling or rolling sphere viscometry | 0.625 | – | 0.8329 | 1.203 | – | 1.771
333.15 K, 60000 kPa, Falling or rolling sphere viscometry | 0.6327 | – | 0.8473 | 1.225 | – | 1.826
333.15 K, 80000 kPa, Falling or rolling sphere viscometry | 0.6418 | – | 0.8631 | 1.253 | – | 1.878
333.15 K, 100000 kPa, Falling or rolling sphere viscometry | 0.6513 | – | 0.8789 | 1.293 | – | 1.964

mass density [kg/m3]
Details | w1 = 0.0992 | w1 = 0.2 | w1 = 0.2991 | w1 = 0.4
293.15 K, 100 kPa | 1013.3 | 1029.5 | 1046.1 | 1065.2
293.15 K, 500 kPa | 1013.5 | 1029.5 | 1046.2 | 1065.3
293.15 K, 1000 kPa | 1013.7 | 1029.7 | 1046.4 | 1065.4
293.15 K, 2000 kPa | 1014.2 | 1030.2 | 1046.8 | 1065.8
293.15 K, 5000 kPa | 1015.5 | 1031.4 | 1047.9 | 1066.9
293.15 K, 10000 kPa | 1017.6 | 1033.4 | 1049.8 | 1068.7
293.15 K, 15000 kPa | 1019.6 | 1035.4 | 1051.7 | 1070.5
293.15 K, 20000 kPa | 1021.8 | 1037.4 | 1053.7 | 1072.3
293.15 K, 30000 kPa | 1026 | 1041.4 | 1057.4 | 1075.8
293.15 K, 40000 kPa | 1030 | 1045.2 | 1061.1 | 1079.3
293.15 K, 50000 kPa | 1034 | 1049 | 1064.7 | 1082.7
293.15 K, 60000 kPa | 1037.9 | 1052.7 | 1068.3 | 1086.1
293.15 K, 70000 kPa | 1041.8 | 1056.4 | 1071.8 | 1089.4
293.15 K, 80000 kPa | 1045.5 | 1059.8 | 1075.1 | 1092.5
293.15 K, 90000 kPa | 1049.1 | 1063.4 | 1078.5 | 1095.8
293.15 K, 100000 kPa | 1052.9 | 1066.9 | 1081.8 | 1098.9
293.15 K, 110000 kPa | 1056.3 | 1070.2 | 1084.9 | 1101.8
293.15 K, 120000 kPa | 1059.8 | 1073.6 | 1088.2 | 1104.9
293.15 K, 130000 kPa | 1063.3 | 1077 | 1091.5 | 1107.9
293.15 K, 140000 kPa | 1066.5 | 1080.1 | 1094.5 | 1110.8
313.15 K, 100 kPa | 1006.9 | 1021.9 | 1037.4 | 1055.1
313.15 K, 500 kPa | 1007 | 1022.1 | 1037.5 | 1055.3
313.15 K, 1000 kPa | 1007.2 | 1022.3 | 1037.7 | 1055.4
313.15 K, 2000 kPa | 1007.6 | 1022.7 | 1038.1 | 1055.8
313.15 K, 5000 kPa | 1008.9 | 1023.9 | 1039.3 | 1056.9
313.15 K, 10000 kPa | 1010.9 | 1025.9 | 1041.2 | 1058.8
313.15 K, 15000 kPa | 1013 | 1027.8 | 1043.1 | 1060.6
313.15 K, 20000 kPa | 1015 | 1029.7 | 1045 | 1062.4
313.15 K, 30000 kPa | 1019.1 | 1033.7 | 1048.8 | 1066
313.15 K, 40000 kPa | 1023 | 1037.6 | 1052.6 | 1069.7
313.15 K, 50000 kPa | 1026.8 | 1041.2 | 1056.1 | 1073.2
313.15 K, 60000 kPa | 1030.7 | 1044.9 | 1059.7 | 1076.6
313.15 K, 70000 kPa | 1034.4 | 1048.5 | 1063.2 | 1079.9
313.15 K, 80000 kPa | 1038 | 1051.9 | 1066.6 | 1083.1
313.15 K, 90000 kPa | 1041.6 | 1055.3 | 1069.9 | 1086.3
313.15 K, 100000 kPa | 1045.2 | 1058.8 | 1073.3 | 1089.5
313.15 K, 110000 kPa | 1048.6 | 1062.1 | 1076.4 | 1092.7
313.15 K, 120000 kPa | 1052 | 1065.6 | 1079.6 | 1095.7
313.15 K, 130000 kPa | 1055.3 | 1068.7 | 1082.8 | 1098.7
313.15 K, 140000 kPa | 1058.5 | 1071.9 | 1085.9 | 1101.7
333.15 K, 100 kPa | 997.2 | 1011.6 | 1026.3 | 1043.1
333.15 K, 500 kPa | 997.5 | 1011.8 | 1026.5 | 1043.3
333.15 K, 1000 kPa | 997.7 | 1012 | 1026.7 | 1043.5
333.15 K, 2000 kPa | 998.1 | 1012.4 | 1027.2 | 1043.9
333.15 K, 5000 kPa | 999.3 | 1013.6 | 1028.3 | 1045.1
333.15 K, 10000 kPa | 1001.4 | 1015.7 | 1030.4 | 1047.1
333.15 K, 15000 kPa | 1003.5 | 1017.7 | 1032.4 | 1049
333.15 K, 20000 kPa | 1005.5 | 1019.7 | 1034.3 | 1050.9
333.15 K, 30000 kPa | 1009.6 | 1023.6 | 1038.2 | 1054.7
333.15 K, 40000 kPa | 1013.6 | 1027.7 | 1042.1 | 1058.4
333.15 K, 50000 kPa | 1017.5 | 1031.4 | 1045.7 | 1062
333.15 K, 60000 kPa | 1021.3 | 1035 | 1049.4 | 1065.6
333.15 K, 70000 kPa | 1024.8 | 1038.6 | 1052.9 | 1069
333.15 K, 80000 kPa | 1028.6 | 1042.1 | 1056.3 | 1072.3
333.15 K, 90000 kPa | 1032 | 1045.6 | 1059.7 | 1075.5
333.15 K, 100000 kPa | 1035.6 | 1049.1 | 1063.2 | 1078.9
333.15 K, 110000 kPa | 1039 | 1052.3 | 1066.3 | 1082
333.15 K, 120000 kPa | 1042.5 | 1055.8 | 1069.8 | 1085.3

Reference: the NIST ThermoML archive (doi:10.1016/j.jct.2017.05.001)
